Results reported in ChEMBL document CHEMBL1149753, “Two new alkaloids from Xestospongia sp., a New Caledonian sponge” (1992).
Converted amounts (≈) assume the structure as drawn. The source made the active and inactive calls. The calls are words filed in the database; no cut-off is given here.

Experiments:
KB = experiment: Cytotoxicity against human KB cells; format: functional; conditions: for EC50: read-out: ED50 (the source's name)
P388 = experiment: In vivo antitumor activity against mouse P388 cells; format: functional, organism-based
L1210 = experiment: Cytotoxicity against mouse L1210 cells; format: functional; conditions: for EC50: read-out: ED50 (the source's name)

SMILES	EC50 (KB) [µg/mL]	Activity (P388)	EC50 (L1210) [µg/mL]	ED50 (KB)	ED50 (L1210)
O[C@@]12CCCCCC[C@H]3CCN4CCC[C@H](CCCCCC[C@H]5CCN(CCC1)[C@@H]2O5)[C@H]4O3 [XESTOSPONGIN D]	2 (≈ 4.32 µM)	inactive	0.2 (≈ 0.432 µM)		
CN(C)CC1NCCc2c1[nH]c1ccccc21 (stereo unspecified)				inactive	inactive
C[C@@H]1CN2CCC[C@H]3CCCCCC[C@H]4CCN5CCC[C@@](O)(CCCCCC[C@@H]1O[C@H]32)[C@H]5O4 [XESTOSPONGIN B]	2.5 (≈ 5.24 µM)	inactive	2 (≈ 4.2 µM)		
O[C@@]12CCCCCC[C@H]3CCN4CCC[C@@H](CCCCCC[C@H]5CCN(CCC1)[C@@H]2O5)[C@H]4O3 [DEMETHYLXESTOSPONGIN B]	2.5 (≈ 5.4 µM)	inactive	0.8 (≈ 1.73 µM)		
